Experimental data reported in patent US9902938B2, “Method for inducing exocrine pancreatic cells” (Kyoto University, priority 2012, dated 2018).

What was measured:
[1] = tested on: PDX1-positive pancreatic precursor cells; assay: Induction of exocrine pancreatic cells from human ES cell-derived pancreatic precursor cells (Example 1, anti-amylase immunostaining); type: cell-based; conditions: human ES cells (KhES3)
Protocol: Human ES cells (KhES3) received from Kyoto University (Kyoto, Japan) were cultured by a conventional method (Mori H, et al., Biochem Biophys Res Commun. 2006, 345, 926-932). ES cells were cultured on 6-cm dishes to 80%-90% confluency, and then 1 mL of Accutase™ was added to disperse ES cells into single cells.
ES cells dispersed into single cells were induced to differentiate into exocrine pancreatic cells according to protocols shown in FIG. 1. Specifically, the following 5 steps were carried out.
(§1) (Stage 1) ES cells were suspended in a RPMI1640 medium containing 2% B27 and Penicillin/Streptomycin, and then seeded in a matrigel-coated 24-well plate at 250,000/well. 100 ng/ml, Activin A and 1 μM CHIR99021 were added to adjust the amount of the medium to be 0.5 mL/well, and then cells were cultured for 6 days.
(Stage 2-1) The medium was substituted with DMEM containing 50 ng/ml FGF10, 0.25 μM KAAD (3-Keto-N-(aminoethyl-aminocaproyl-dihydro-cinnamoyl))-cyclopamine, 1% L-Glutamin, 2% B27, 50 mU/L Penicillin and 50 μg/L Streptomycin, and then cells were cultured for 1 day.
(Stage 2-2) The medium was substituted with DMEM containing 2 μM retinoic acid, 50 ng/ml FGF10, 0.25 μM KAAD-cyclopamine, 1% L-Glutamin, 2% B27, 50 mU/L Penicillin and 50 μg/L Streptomycin, and then cells were cultured for 2 days.
(Stage 2-3) The medium was substituted with DMEM containing 50 ng/ml FGF10, 300 nM (−)-indolactam V (ILV), 1% L-Glutamin, 2% B27, 50 mU/L Penicillin and 50 μg/L Streptomycin, and then cells were cultured for 4 days.
(Stage 3) The medium was substituted with DMEM containing 1 μM CHAP108 (formula 10), 300 nM ILV, 1% L-Glutamin, 2% B27, 50 mU/L Penicillin and 50 μg/L. Streptomycin, and then cells were cultured for 4 days or 8 days.
The result obtained by culturing cells for 12 days in Stage 3 with the use of the ligand protein for a Notch signal, 0.5 mg/ml hDLL4 or 0.5 mg/ml hJAG1, instead of CHAP108 was compared with the result obtained by culturing cells for 4 days in Stage 3 with the use of CHAP108. […]

[2] = tested on: PDX1-positive pancreatic precursor cells; assay: Induction of exocrine pancreatic cells by modified protocol (Example 2, immunostaining with anti-Amylase); type: cell-based; conditions: Stage 3 culture 2 days, 1 μM CHAP108 with 300 nM ILV; human ES cells (KhES3); DMSO negative control 2.8%
Protocol: ES cells (KhES3) dispersed into single cells were induced to differentiate into exocrine pancreatic cells according to modified protocols shown in FIG. 1. Specifically, the following 5 steps were carried out.
as §1, with “100 ng/mL” for “100 ng/ml,”, “for 4” for “for 6”
(Stage 2-1) The medium was substituted with DMEM containing 50 ng/ml […], 0.25 μM KAAD (3-Keto-N-(aminoethyl-aminocaproyl-dihydro-cinnamoyl))-cyclopamine, 1% L-Glutamin, 2% B27, 50 mU/L Penicillin and 50 μg/L Streptomycin, and then cells were cultured for 1 day.
(Stage 2-2) The medium was substituted with DMEM containing 2 μM retinoic acid, 50 ng/ml FGF10, 0.25 μM KAAD-cyclopamine, 1% L-Glutamin, 2% B27, 50 mU/L Penicillin and […] Streptomycin, and then cells were cultured for 2 days.
(Stage 2-3) The medium was substituted with DMEM containing 50 ng/ml FGF10, 300 nM (−)-indolactam V (ILV), 1% L-Glutamin, 2% B27, 50 mU/L Penicillin and 50 μg/L Streptomycin, and then cells were cultured for 2 days. […]

[3] = Stage 3 culture 12 days, 0.5 mg/ml ligand protein instead of CHAP108

## CCC(C)C1NC(=O)C(Cc2ccc(OC)cc2)NC(=O)C(CCCCCN(O)C=O)NC(=O)C2CCCCN2C1=O (stereo not shown) [CHAP108]
[1]; Stage 3 culture 4 days, 1 μM CHAP108 with 300 nM ILV
  efficiency for inducing exocrine pancreatic cells: 21.4%
[2]
  Amylase positive rate: 56.3%

## hDLL4: ligand protein for a Notch signal receptor, member of the Delta-like family
[1]; [3]
  efficiency for inducing exocrine pancreatic cells: 28.8%

## hJAG1: ligand protein for a Notch signal receptor, member of the Jagged family
[1]; [3]
  efficiency for inducing exocrine pancreatic cells: 27.0%
